Tests used:
[1] = system: mice lacking OX1 receptors; assay: DRL 36-s schedule of reinforcement in OX1 KO mice; format: in vivo, mouse; conditions: for Lever Presses Mean / Reinforcers Mean: OX1 KO mice DRL-36-s, raw data
Source text: Rats were acclimated to housing conditions for 4 days, followed by sham dosing once daily for 3 days, prior to the experiment. For DRL experiments, male Sprague–Dawley rats weighing between 300 and 350 g at the beginning of the behavioral experiments (Holtzman, Madison, WI) were housed in pairs. For mouse DRL studies, male C57Bl/6 mice (Taconic Farms, Hudson, NY) or mice lacking either OX1 or OX2 receptors, around 8 weeks of age, were obtained from private breeding colonies at Taconic Farms (Hudson, NY). OX1 and OX2 receptor knockout mice were generated using in vitro fertilization of embryos in C57Bl/6 female mice with sperm harvested from male mice obtained from the University of Texas Southwestern Medical Center (Dallas, TX), and backcrossed for at least 10 generations. Mice and rats were housed in separate colony rooms, which were maintained at 22°C and 60% relative humidity. For rat DRL experiments, water was available for a 20-min period following the daily behavioral session. Based on recommendations from the animal care and use committee, the mouse DRL assay was developed using food deprivation rather than water deprivation. […] All experiments were conducted during the light cycle and in compliance with the Guide for the Care and Use of Laboratory Animals under protocols approved by a local animal care and use committee.
The levers in these chambers were mounted on one wall with an adjacent food magazine next to the lever in the middle of the wall. A reinforced response caused a clicker apparatus to activate and the pellet feeder to deposit one 45-mg sucrose pellet (BioServ, Frenchtown, NJ) into the food magazine. The house light, which was mounted on the ceiling, was turned on when the session began, remained on throughout the entire session, and was turned off at the end of the session. Each experimental chamber was enclosed in a melamine sound-attenuating cubicle and equipped with a white noise generator to provide masking noise.
Each mouse was initially trained under a variable time 60-s operant schedule for 5 days, followed by fixed ratio-1 ratio schedule for 5 days. After the mice had acquired lever-pressing behavior, they were trained during daily DRL 6-s sessions for ~1 week, then mice progressed through weekly ascending DRL requirements (12, 18, 24, 30 s) before moving to DRL 36-s sessions. […] Experimental sessions lasted for 45 min and were conducted 5 days/week during light hours.
Drugs were administered to the animals once or twice weekly with at least 1 week between subsequent drugs to minimize possible carryover effects. Drug treatments were administered on Tuesdays and Fridays. No treatments were administered on other test days. Wednesdays were control days. “Control” behavior was calculated as the pooled mean lever presses or reinforcers received during Wednesday sessions across all Wednesdays for the duration of each study. Performance was normalized to percent of control by dividing total responses (or reinforcers) for each drug or vehicle treatment by the mean number of responses (reinforcers) in the respective pooled control condition, multiplied by 100.
The data analyses were conducted on the raw response and reinforcement data. All behavioral data are expressed as the mean ± s.e.m. normalized to the control condition.

human OX1 receptors = target: T1, human OX1 receptors (Homo sapiens, UniProt O43613); assay: Intracellular calcium mobilization (FLIPR), antagonist mode vs EC70 orexin-A; conditions: HEK293 cells, mean ± s.e.m. (n)
T1 sequence (O43613 1-425): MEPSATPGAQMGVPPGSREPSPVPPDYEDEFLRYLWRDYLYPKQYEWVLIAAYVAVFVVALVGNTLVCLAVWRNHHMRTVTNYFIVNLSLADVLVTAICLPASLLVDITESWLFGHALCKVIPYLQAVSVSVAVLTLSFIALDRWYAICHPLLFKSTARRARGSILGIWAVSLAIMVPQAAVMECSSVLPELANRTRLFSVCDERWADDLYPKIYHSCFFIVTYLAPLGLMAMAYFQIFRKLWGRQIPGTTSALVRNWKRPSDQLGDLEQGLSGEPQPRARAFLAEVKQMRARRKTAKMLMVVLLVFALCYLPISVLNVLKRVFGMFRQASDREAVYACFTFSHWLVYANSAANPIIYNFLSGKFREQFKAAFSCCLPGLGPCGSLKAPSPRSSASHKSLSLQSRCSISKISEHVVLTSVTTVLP
Protocol: (§1) Recombinant human OX1 and OX2 receptors were stably expressed in HEK293 cells, or rat recombinant OX1 and OX2 receptors stably expressed in AV12 cells, and assessed for intracellular calcium mobilization using Fluo-3 dye (Molecular Probes, Eugene, OR). […] It was further diluted to 8 mM in 2.5 mM probenecid loading buffer which was made as described below. The human cell line was grown in DMEM/F-12 (3:1) supplemented with 10% FBS (heat-inactivated), 20 mM HEPES, 1% Penn/Strep, and 4 μg/ml Blasticidin (35,000 cells/well). The rat cell line was grown in DMEM supplemented with 10% FBS (heat-inactivated), 20 mM HEPES, 1% Penn/Strep, 4 μg/ml Blasticidin, and 1 mM sodium pyruvate (60,000 cells/well). […] Finally, plates were read on a fluorescence imaging plate reader (FLIPR; Molecular Devices, LLC, Sunnyvale, CA) instrument with a 50 μl addition of antagonist; cells were placed in the dark at room temperature for an additional 15 min; then read on FLIPR instrument with a 100 μl addition of an EC70 concentration of orexin A (for a total volume of 200 μl). […] Kb-values were calculated based on 10-point dilution curves using ActivityBase templates (ID Business Solutions, Ltd., Guildford, Surrey, UK). […]

rat OX1 receptors = target: T2, rat OX1 receptors (Rattus norvegicus, UniProt P56718); assay: cell-based
T2 sequence (P56718 1-416): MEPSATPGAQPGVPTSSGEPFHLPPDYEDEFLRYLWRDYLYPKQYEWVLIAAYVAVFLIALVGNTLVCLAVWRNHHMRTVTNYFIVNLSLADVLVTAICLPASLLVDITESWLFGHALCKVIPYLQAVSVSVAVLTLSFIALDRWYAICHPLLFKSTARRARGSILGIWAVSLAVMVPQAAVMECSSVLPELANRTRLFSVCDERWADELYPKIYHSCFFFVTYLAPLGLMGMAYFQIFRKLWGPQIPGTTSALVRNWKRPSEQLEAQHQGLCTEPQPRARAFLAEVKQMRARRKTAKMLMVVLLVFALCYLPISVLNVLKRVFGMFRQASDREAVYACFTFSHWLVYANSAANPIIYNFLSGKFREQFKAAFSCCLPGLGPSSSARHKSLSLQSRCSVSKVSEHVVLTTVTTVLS
Protocol: as §1

rat OX2 receptors = target: T3, rat OX2 receptors (Rattus norvegicus, UniProt P56719); assay: cell-based
T3 sequence (P56719 1-460): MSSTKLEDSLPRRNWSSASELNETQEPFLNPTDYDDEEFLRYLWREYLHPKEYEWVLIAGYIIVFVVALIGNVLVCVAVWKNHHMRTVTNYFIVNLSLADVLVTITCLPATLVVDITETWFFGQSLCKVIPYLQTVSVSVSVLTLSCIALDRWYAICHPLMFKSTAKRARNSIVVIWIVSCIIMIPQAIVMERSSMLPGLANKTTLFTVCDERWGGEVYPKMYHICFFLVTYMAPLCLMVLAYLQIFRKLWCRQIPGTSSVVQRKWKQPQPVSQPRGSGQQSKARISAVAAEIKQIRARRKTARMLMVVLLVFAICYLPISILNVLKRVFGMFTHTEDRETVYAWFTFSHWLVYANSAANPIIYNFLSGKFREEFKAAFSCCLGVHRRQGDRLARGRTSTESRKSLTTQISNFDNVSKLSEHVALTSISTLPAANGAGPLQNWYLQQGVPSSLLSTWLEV

[2] = mice lacking OX1 receptors, 100 mg/kg

| Structure (SMILES) | Lever Presses Mean ([1]; dose 100 mg/kg) | Reinforcers Mean ([1]; dose 100 mg/kg) | Lever pressing, effect in words [1, 2] | Reinforcers received, effect in words [1, 2] | Functional antagonist activity, Kb hOX1 (human OX1 receptors) | Kb (rat OX1 receptors) [nM] | Kb (rat OX2 receptors) [nM] | Lever Presses Mean ([1]; dose 10 mg/kg) | Reinforcers Mean ([1]; dose 10 mg/kg) | Lever Presses Mean ([1]; dose 20 mg/kg) | Reinforcers Mean ([1]; dose 20 mg/kg) | Lever Presses Mean ([1]; dose 40 mg/kg) | Reinforcers Mean ([1]; dose 40 mg/kg) | Lever Presses Mean ([1]; dose 60 mg/kg) | Reinforcers Mean ([1]; dose 60 mg/kg) | Lever presses emitted, effect in words ([1]; mice lacking OX1 receptors, all doses 10–60 mg/kg) | Reinforcers received, effect in words ([1]; mice lacking OX1 receptors, at 10 and 40 mg/kg) |
| --- | --- | --- | --- | --- | --- | --- | --- | --- | --- | --- | --- | --- | --- | --- | --- | --- | --- |
| CNC(=O)[C@@H](c1ccccc1)N1CCc2cc(OC)c(OC)cc2[C@@H]1CCc1ccc(C(F)(F)F)cc1 [Almorexant (R)] | 103.75 | 28.88 | significant decrease | significant increases | inactive | – | – | – | – | – | – | – | – | – | – | – | – |
| CNC(=O)[C@@H](c1ccccc1)N1CCc2cc(OC)c(OC)cc2[C@@H]1CCc1ccc(C(F)(F)F)cc1 [Almorexant (S)] | – | – | – | – | – | 3.2 ± 0.7 | 4.4 ± 1.6 | 111.38 | 33.00 | 124.75 | 30.50 | 108.25 | 34.63 | 110.13 | 29.13 | reduced the number of lever presses emitted | significant increase |
